Patent publication US9539141B2, “System and method for ocular iontophoresis with buffering” (Eyegate Pharmaceuticals, Inc., priority 2008, dated 2017)

Test: pH of aqueous solution at dosing concentration
Conditions: aqueous solution at dosing concentration of 40 mg/mL

Compound: C[C@@H]1C[C@H]2[C@@H]3CCC4=CC(=O)C=C[C@]4(C)[C@@]3(F)[C@@H](O)C[C@]2(C)[C@@]1(O)C(=O)COP(=O)(O)O [dexamethasone phosphate]
- pH of aqueous solution: 5.7
